# Test results as given in patent US20250311727A1, “SUBSTITUTED 2-AMINOAZINES AND SALTS THEREOF, AND USE THEREOF AS HERBICIDAL ACTIVE SUBSTANCES” (BAYER AKTIENGESELLSCHAFT, priority 2022, published 2025).
# How the values were obtained:
# Format in all cases: in vivo
# Veronica persica = assay: Pre-emergence herbicide efficacy at 320 g/ha, VERPE; details: scored visually after about 3 weeks vs untreated controls, 100% = plants have died
# Method in brief: (§1)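 Weed seeds were sown in sandy loam, covered with soil, and the soil surface was sprayed with WP- or EC-formulated compound as aqueous suspension/emulsion plus 0.5% additive at 600 L/ha water. Pots stood in a greenhouse; about 3 weeks later efficacy was scored visually as % versus untreated controls (100% = plants dead, 0% = like control).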
# Amaranthus retroflexus [1] = assay: Post-emergence herbicidal efficacy at 320 g/ha, AMARE; details: rated visually after about 3 weeks vs untreated controls, 100% = plants have died
# Method in brief: (§2)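 Visual rating about 3 weeks after treatment, scored against untreated plants on a scale from 0% (no effect) to 100% (dead). Application was foliar, as aqueous WP or EC suspension or emulsion with 0.5% additive at 600 L/ha, on one-leaf-stage greenhouse plants 2–3 weeks old, grown in sandy loam.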
# Setaria viridis = assay: Pre-emergence herbicide efficacy at 320 g/ha, SETVI; details: scored visually after about 3 weeks vs untreated controls, 100% = plants have died
# Method in brief: as §1
# Digitaria sanguinalis = assay: Pre-emergence herbicide efficacy at 320 g/ha, DIGSA; details: scored visually after about 3 weeks vs untreated controls, 100% = plants have died
# Method in brief: as §1
# Lolium rigidum = assay: Pre-emergence herbicide efficacy at 320 g/ha, LOLRI; details: scored visually after about 3 weeks vs untreated controls, 100% = plants have died
# Excerpt: Unwanted plants/weeds: • ABUTH: Abutilon theophrasti • ALOMY: Alopecurus myosuroides • AMARE: Amaranthus retroflexus • DIGSA: Digitaria sanguinalis • ECHCG: Echinochloa crus-galli • KCHSC: Kochia scoparia • LOLRI: Lolium rigidum • MATIN: Matricaria inodora • POAAN: Poa annua • POLCO: Polygonum convolvulus • SETVI: Setaria viridis • STEME: Stellaria media • VERPE: Veronica persica • VIOTR: Viola tricolor A. Post-Emergence Herbicidal Efficacy at 320 g/ha
# Seeds of mono- and dicotyledonous weed plants were placed in plastic pots in sandy loam soil (doubly sown with one species each of mono- or dicotyledonous weed plants per pot) and covered with soil. The compounds of the invention, formulated in the form of wettable powders (WP) or as emulsion concentrates (EC), were then applied to the surface of the covering soil as aqueous suspension or emulsion with addition of 0.5% additive at a water application rate of 600 litres per hectare (converted). After the treatment, the pots were placed in a greenhouse and kept under good growth conditions for the test plants. After about 3 weeks, the efficacy of the preparations was scored visually in comparison with untreated controls as percentages.
# For example, 100% activity=the plants have died, 0% activity=like control plants.
# Tables C1 to C12 below show the effects of selected compounds of the general formula (I) according to Table 1 on various harmful plants and at an application rate corresponding to 320 g/ha, which were obtained by the trial procedure specified above.
# Poa annua = assay: Pre-emergence herbicide efficacy at 320 g/ha, POAAN; details: scored visually after about 3 weeks vs untreated controls, 100% = plants have died
# Method in brief: as §1
# Echinochloa crus-galli = assay: Post-emergence herbicidal efficacy at 320 g/ha, ECHCG; details: rated visually after about 3 weeks vs untreated controls, 100% = plants have died
# Method in brief: as §2
# Stellaria media = assay: Pre-emergence herbicide efficacy at 320 g/ha, STEME; details: scored visually after about 3 weeks vs untreated controls, 100% = plants have died
# Method in brief: as §1
# Kochia scoparia [2] = assay: Post-emergence herbicidal efficacy at 320 g/ha, KCHSC; details: rated visually after about 3 weeks vs untreated controls, 100% = plants have died
# Method in brief: as §2
# Kochia scoparia [3] = assay: Pre-emergence herbicide efficacy at 320 g/ha, KCHSC; details: scored visually after about 3 weeks vs untreated controls, 100% = plants have died
# Method in brief: as §1
# Amaranthus retroflexus [4] = assay: Pre-emergence herbicide efficacy at 320 g/ha, AMARE; details: scored visually after about 3 weeks vs untreated controls, 100% = plants have died
# Method in brief: as §1
structure (smiles),measurement,setting,value
Fc1cnc(Nc2cccc(F)c2-n2cc(C(F)(F)F)cn2)nc1 [Example 1-48],Pre-emergence efficacy at 320 g/ha against VERPE in %,Veronica persica,100%
same,Post-emergence efficacy at 320 g/ha against AMARE in %,Amaranthus retroflexus [1],100%
same,Pre-emergence efficacy at 320 g/ha against SETVI in %,Setaria viridis,100%
same,Pre-emergence efficacy at 320 g/ha against DIGSA in %,Digitaria sanguinalis,100%
same,Pre-emergence efficacy at 320 g/ha against LOLRI in %,Lolium rigidum,100%
same,Pre-emergence efficacy at 320 g/ha against POAAN in %,Poa annua,100%
same,Post-emergence efficacy at 320 g/ha against ECHCG in %,Echinochloa crus-galli,90%
same,Pre-emergence efficacy at 320 g/ha against STEME in %,Stellaria media,100%
same,Post-emergence efficacy at 320 g/ha against KCHSC in %,Kochia scoparia [2],90%
same,Pre-emergence efficacy at 320 g/ha against KCHSC in %,Kochia scoparia [3],100%
same,Pre-emergence efficacy at 320 g/ha against AMARE in %,Amaranthus retroflexus [4],100%
